Results from patent publication US20060110376A1, “MDA-7 and free radicals in the treatment of cancer” (priority 2002, published 2006).

Tests used:
Format in all cases: cell-based, human
[1] = tested on: pancreatic cancer cell lines; test: Western blotting of K-ras and MDA-7 protein
Source text: FIG. 43. MDA-7 expression in pancreatic cancer cell lines in the presence or absence of Ad.mda-7, Ad.K-rasAS, or NSC656243. The presence of MDA-7 in mutant K-ras cell lines requires expression of both mda-7 and the antisense K-ras construct, and is potentiated by NSC656243.
FIG. 45. The MDA-7 expression observed in the PANC-1 or BxPC-3 cell lines following administration of Ad.mda-7 in combination with either NSC656240 or Ar2O3 is abrogated by NAC administration.
Preparation of Cell Extracts and Western Blotting Analysis. Cells were washed 2× with cold PBS and lysed on ice for 30 min in […] of cold RIPA buffer [50 mM Tris-HCl (pH 8.0), 150 mM NaCl, 0.1% SDS, 1% NP40, and 0.5% sodium deoxycholate] with freshly added 0.1 mg/ml phenylmethylsulfonyl fluoride, 1 mM sodium orthovanadate, and 1 mg/ml aprotinin. After cell debris were removed by centrifugation at 14,000 g for 10 min at 4° C., protein concentrations were determined using the Bio-Rad protein assay system (Bio-Rad Laboratories, Richmond, Calif.). Aliquots of cell extracts containing […] of total protein were resolved in 12% SDS-PAGE and transferred to Immobilon-P PVDF membranes (Millipore Corp., Bedford, Mass.). Filters were blocked for 1 h at room temperature in Blotto A [5% nonfat milk powder in TBS-T: 10 mM Tris-HCl (pH 8.0), 150 mM NaCl, 0.05% Tween 20], and then incubated for 1 h at room temperature in Blotto A containing a 1:1000 dilution of rabbit anti MDA-7 polyclonal antibody. After washing in TBS-T buffer (3×5 min, RT), filters were incubated for 1 h at room temperature in Blotto A containing a 1:10,000 dilution of peroxidase conjugated anti-rabbit secondary antibody (Amersham, Arlington Heights, Ill.). After washing in TBS-T, ECL was performed according to the manufacturer's recommendation.

[2] = tested on: prostate carcinoma cells; test: ROS production (DCF fluorescence, flow cytometry)
Protocol: (§1) Cells were seeded in 96-well plates, pretreated with NAC (5 mM) or Tiron (1 mM) for 2 h and infected with Ad.mda-7. Forty eight hours later, viability was assessed by MTT assay. […] Cells were seeded in 96-well plates, infected with Ad.mda-7 and treated with As2O3 (10 μM) or NSC656240 (400 nM). Forty eight h later, viability was assessed by MTT assay. Panel C. […] After treatment, cells were stained using DCF-DA and analyzed using flow cytometry. […] After treatment, cells were washed and stained with Annexin V-FITC conjugate. Late apoptotic and necrotic cells were excluded using PI staining. Results are the mean of three independent experiments performed with triplicate samples±S.E.

[3] = tested on: pancreatic carcinoma cells; test: Apoptosis (annexin V exposure, hypodiploid A0 cells)
Source text: FIG. 39. Combined treatment of pancreatic carcinoma cells by NSC656240 and Ad.mda-7 increases levels of annexin V in pancreatic cancer cells irrespective of K-ras status.
FIG. 40. NAC administration prevents the apoptosis of pancreatic cancer cells induced by treatment of pancreatic carcinoma cells by NSC656240 or Ar2O3 and Ad.mda-7.
FIG. 41. Combined treatment of pancreatic carcinoma cells by NSC656240 or Ar2O3 and Ad.mda-7 causes apoptosis irrespective of K-ras status.
Annexin V Binding Assays. Cells were trypsinized, washed once with complete medium and stained with FITC-labeled Annexin-V (kit from Oncogene Research Products, Boston, Mass.) according to the manufacturer's instructions. Flow cytometry was performed immediately after staining.
Cell Cycle Analysis. Cells were trypsinized, washed 2× with PBS and fixed in 70% ethanol overnight at −20° C. Then cells were washed 2 times with PBS, and aliquots of 1×10^6 cells were resuspended in 1 ml of PBS containing 1 mg/ml of RNase A and 0.5 mg/ml of propidium iodide. After 30 min incubation, cells were analyzed by flow cytometry using a FACScan flow cytometer (Becton Dickinson, San Jose, Calif.).

[4] = tested on: pancreatic carcinoma cells; test: MTT viability assay
Protocol: (§2) MTT Viability Assays. Cell viability was assessed by MTT assays as described (Lebedeva et al., 2000, Cancer Research 60:6052-6060). Briefly, cells were seeded in 96-well tissue culture plates (1.5×10^3 cells per well) and treated with various agents. At the indicated times, medium was removed, and fresh medium containing 0.5 mg/ml MTT was added to each well. The cells were incubated at 37° C. for 4 h and then an equal volume of solubilization solution (0.01N HCl in 10% SDS) was added to each well and mixed thoroughly. The optical density from the plates was read on a BioRad Microplate Reader Model 550 at 595 nm.

[5] = tested on: prostate carcinoma cell lines (DU-145, PC-3, LNCaP); test: MTT viability assay; details: 48 h
Protocol: as §1
[…] Cellular viability was assessed by MTT assay 48 h after infection (Panel A). Mitochondrial membrane potential (DiOC6(3) staining, Panel B) and apoptotic changes (Annexin V staining, Panel C) were assessed 18 h (LNCaP cells) and 24 h (DU-145, PC-3 and P69 cells) after infection.
as §2, with “This method” for “Cell viability”, “performed” for “assessed by MTT assays”, “Briefly, cells were seeded in 96-well tissue culture plates (1.5×10^3 cells per well) and treated with various agents.” left out, “time points,” for “times,”

[6] = tested on: pancreatic carcinoma cells; test: ROS production (flow cytometry)
Protocol: FIG. 46. Combined treatment by NSC656240 or Ar2O3 and Ad.mda-7 causes overproduction of ROS in pancreatic carcinoma cells.
Assessment of ROS Production. To determine ROS production, cells were stained with 2.5 μM HE or 5 μM DCFH-DA in PBS for 30 min at 37° C. in the dark. Immediately after staining, cells were analyzed by flow cytometry (FACSscan, Becton-Dickinson, Mountain View, Calif.), and data were analyzed using CellQuest software, version 3.1 (Becton Dickinson). For inhibition experiments, NAC (Sigma) was added 2 h prior to infection with Ad.mda-7. In all cases, cells were gated to exclude cell debris.

[7] = tested on: pancreatic cancer cells stably transformed to express MDA-7; test: Apoptosis and cell death in cells stably expressing MDA-7
Source text: FIG. 49. Induction of apoptosis in pancreatic cancer cell lines (PANC-1) stably expressing MDA-7.
FIG. 50. Induction of apoptosis in pancreatic cancer cell lines (Mia PaCa-2) stably expressing MDA-7.
FIG. 51. Induction of apoptosis in pancreatic cancer cell lines (FM516 or BxPC-3) stably expressing MDA-7.

| Compound | MDA-7 protein expression and secretion, combined treatment with Ad.mda-7 ([1]; wt and mutated K-ras pancreatic cancer cell lines) | ROS levels ([2]; treated with NSC656240 or As2O3) | apoptosis, combination treatment with Ad.mda-7 ([3]; annexin V exposure and A0 population) | cell death, combinational treatment with Ad.mda-7 ([4]; Ad.mda-7 100 p.f.u./cell) | effect of ROS-producing agent on cell death of Ad.mda-7-infected cells ([5]; As2O3 10 μM, NSC656240 400 nM) | ROS production, combined treatment with Ad.mda-7 [6] | apoptosis and cell death [7] | effect of NAC on MDA-7 expression and secretion ([1]; both type of cells) | effect of NAC on Ad.mda-7-induced ROS generation ([2]; non-cytotoxic dose of NAC) | effect of NAC on apoptosis after combination treatment [3] | effect of N-acetyl-cysteine on death after combinational treatment [4] | effect of antioxidant on cell death promoting activity of Ad.mda-7 ([5]; NAC 5 mM, Tiron 1 mM) | effect of NAC on ROS production [6] | effect of NAC on apoptosis and cell death [7] |
| --- | --- | --- | --- | --- | --- | --- | --- | --- | --- | --- | --- | --- | --- | --- |
| arsenic trioxide | leads to MDA-7 protein expression and secretion | ROS levels increased proportionally | caused apoptosis in pancreatic carcinoma cells independently of their K-ras status | caused death of these cells irrespective of their K-ras status | potentiated cell death | Caused ROS overproduction | caused apoptosis and cell death |  |  |  |  |  |  |  |
| CC(=O)N[C@@H](CS)C(=O)O [NAC, N-acetyl-cysteine] |  |  |  |  |  |  |  | abrogates MDA-7 expression and secretion | suppressed Ad.mda-7-induced ROS generation | prevents apoptosis | death can be prevented | abrogated | blocked ROS production | blocks these processes |
